Measurements published in US5541213A, “Propenoic acid derivatives diazole propenoic acid compounds which have useful pharmaceutical utility” (Eisai Co., Ltd., priority 1993, dated 1996).

What was measured:
[1] = system: Fisher 344 male rats (glycerol-induced renal trouble model); experiment: Activity against glycerol-induced renal trouble model; format: in vivo, rat; conditions: 0.3 mg/5 ml/kg orally 60 minutes before 50% glycerol i.m. 10 ml/kg, blood sampled after about 24 hours
Method: Fisher 344 male rats aged 8 weeks and weighing 200 to 230 g were kept without water for 18 hours prior to the use. Thereafter, the test compound was orally administered forcedly to the test group of rats in an amount of 0.3 mg/5 ml/kg, while a solvent [2% Tween 80 solution] to the control group of rats in an amount of 5 ml/kg. After 60 minutes from the administration of the test compound or solvent, a 50% solution of glycerol in physiological saline was intramuscularly administered to each rat through both left and right femoral muscles in an amount of 10 ml of kg. After the completion of the intramuscular administration, the rats were watered. After about 24 hours, the rats were etherized and blood was sampled from each rat. The blood samples thus prepared were each centrifuged to collect serum, which was analyzed for urea nitrogen and creatinine.

Fisher male rats = experiment: Diuretic activity; format: in vivo, rat; conditions: 1 mg/25 ml/kg orally in 0.4% Tween 80 in physiological saline; urine collected for 2 hours
Method: Fisher male rats aged 8 weeks and weighing 190 to 210 g were fasted for 18 hours prior to the use. The test compound was orally administered forcedly to the test group of rats in a state dispersed in a 0.4% solution of Tween 80 in physiological saline in an amount of 1 mg/25 ml/kg, while a 0.4% solution of Tween 80 in physiological saline to the control group of rats in the same amount as that administered to the test group. Immediately after the administration, the rats were put in individual metabolism cages respectively to collect urine from each rat for 2 hours. The urinary volume of each rat was determined and thereafter the urine was examined for uric acid concentration to calculate the amount of uric acid egested. The control group was composed of six rats, while the test group three rats. The amounts of uric acid excreted from the rats of each group were averaged out to determine the increment of the excretion of uric acid based on the averages.

[2] = target: T1, right atrium of Hartley male guinea pigs (heart rate lowering effect of adenosine) (Cavia porcellus, UniProt P47745); experiment: Adenosine antagonism (heart rate lowering effect of adenosine in isolated right atrium); format: cell-based; conditions: guinea pig right atrium, 37° C., dipyridamole added, 20 minutes with test compound, adenosine added cumulatively; spontaneous heart rate; read-out: pA2 value (adenosine antagonism) (converted)
T1 construct: the right atrium was extirpated from the heart; from tissue; host or cells: isolated right atrium of Hartley male guinea pigs
T1 sequence (P47745 1-326): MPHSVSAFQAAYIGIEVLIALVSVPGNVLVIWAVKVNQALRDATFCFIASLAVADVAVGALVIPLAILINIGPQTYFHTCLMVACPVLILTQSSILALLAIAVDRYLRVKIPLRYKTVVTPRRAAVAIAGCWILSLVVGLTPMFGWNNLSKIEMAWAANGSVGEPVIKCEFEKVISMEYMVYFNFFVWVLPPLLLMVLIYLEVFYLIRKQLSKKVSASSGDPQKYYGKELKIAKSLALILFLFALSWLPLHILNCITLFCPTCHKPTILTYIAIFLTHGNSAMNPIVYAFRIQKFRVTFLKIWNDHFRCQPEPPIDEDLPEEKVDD
Method: Hartley male guinea pigs weighing 250 to 400 g were beaten to death. The heart was immediately extirpated from each guinea pig and put in the Krebs-Heuseleit solution saturated with a gas mixture comprising 95% of oxygen and 5% of carbon dioxide. Thereafter, the right atrium was extirpated from the heart. The samples thus preparer were each vertically suspended in a Magnus tube (capacity: 6 ml) filled with a nutrient liquid at 37° C. and the same gas mixture as that used above was passed through the tube.
The change in tension was isometrically determined under a load of about 0.5 g and the spontaneous heart rate was measured and recorded with a cardiotachometer by utilizing the signal of the change as a trigger.
After the stabilization of the sample, 10^-5 mol of dipyridamole was added to each Magnus tube. Thereafter, the test compound was added directly to each of the Magnus tubes of the test group in a state dissolved in DMSO, while a solvent (DMSO) to each of the Magnus tubes of the control group in the same amount as that added to each Magnus tube of the test group. The resulting Magnus tubes was allowed to stand for 20 minutes. […]
The EC50 value with respect to the heart rate lowering effect of adenosine was calculated and the adenosine antagonism was represented by pA2 value (-log M).

[3] = system: Fisher 344 male rats (cisplatin-induced trouble model); experiment: Activity against cisplatin-induced gastric trouble model; format: in vivo, rat; conditions: cisplatin 6 mg/5 ml/kg s.c., 1 mg/5 ml/kg orally, repeated over four days, blood sampled on the fifth day
Method: Cisplatin was subcutaneously administered to Fisher 344 male rats aged 7 weeks and weighing 170 to 200 g in an amount of 6 mg/5 ml/kg. Immediately after the administration, the test compound was orally administered forcedly to the test group of rats in an amount of 1 mg/5 ml/kg, while a solvent (2% Tween 80 solution) to the control group of rats in an amount of 5 ml/kg. Six hours after the administration, the administration of the test compound and the solvent to the test group and the control group respectively was conducted in a similar manner to that described above. Thereafter, the same administration was repeated on the next day twice, and on the third and forth days each once. On the fifth day, the rats were etherized and blood was sampled from each rat. The blood samples thus prepared were analyzed for serum urea nitrogen and creatinine.

O=C(/C=C/c1c[nH]nc1-c1cccc(F)c1)NC(Cc1ccccn1)c1cc(Cl)ccn1 (single isomer, unassigned; (+)) [Example 2, (+)-(E)-N-{1-(4-Chloropyridin-2-yl)-2-(pyridin-2-yl)ethyl}-3-{3-(3-fluorophenyl)-1H-pyrazol-4-yl}-2-propenamide]
serum creatinine ([1]; *P < 0.05 vs control (4.76 ± 0.21)): 3.47 ± 0.30 mg/dL | Serum urea nitrogen ([1]; *P < 0.05 vs control (185.4 ± 3.2)): 142.4 ± 10.5 mg/dL | amount of uric acid excreted (control group taken as 100%) (Fisher male rats): 166% | urinary volume of the test group (control group taken as 100%) (Fisher male rats): 605% | Kb [2]: 38.9 pM | serum creatinine ([3]; *P < 0.05 vs control (2.15 ± 0.16)): 1.49 ± 0.04 mg/dL | Serum urea nitrogen ([3]; *P < 0.05 vs control (93.4 ± 6.5)): 52.9 ± 2.3 mg/dL
